Molecules are shown by their SMILES.

For assay [1], the target named is HDAC8 (Homo sapiens (Human), UniProt Q9BY41). To be noted: read-out: HDAC8 IC50.
Assay [2] deals with HDAC1 (Homo sapiens (Human), UniProt Q13547). To be noted: read-out: HDAC1 IC50.
Sequence of HDAC1 (Q13547 whole entry): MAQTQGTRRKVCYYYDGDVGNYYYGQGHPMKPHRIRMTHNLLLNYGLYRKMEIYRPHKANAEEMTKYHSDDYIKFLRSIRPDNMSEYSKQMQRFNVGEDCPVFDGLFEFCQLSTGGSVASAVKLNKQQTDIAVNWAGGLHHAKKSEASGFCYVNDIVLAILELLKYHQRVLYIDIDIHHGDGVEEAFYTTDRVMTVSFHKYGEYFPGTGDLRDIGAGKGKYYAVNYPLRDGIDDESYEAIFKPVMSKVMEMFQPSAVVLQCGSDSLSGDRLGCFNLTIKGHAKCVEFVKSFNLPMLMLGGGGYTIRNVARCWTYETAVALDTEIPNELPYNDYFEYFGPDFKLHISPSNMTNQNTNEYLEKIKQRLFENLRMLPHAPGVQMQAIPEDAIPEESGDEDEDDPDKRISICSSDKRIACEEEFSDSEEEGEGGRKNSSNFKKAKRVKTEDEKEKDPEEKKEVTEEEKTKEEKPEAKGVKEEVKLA

Sequence of HDAC8 (Q9BY41 whole entry): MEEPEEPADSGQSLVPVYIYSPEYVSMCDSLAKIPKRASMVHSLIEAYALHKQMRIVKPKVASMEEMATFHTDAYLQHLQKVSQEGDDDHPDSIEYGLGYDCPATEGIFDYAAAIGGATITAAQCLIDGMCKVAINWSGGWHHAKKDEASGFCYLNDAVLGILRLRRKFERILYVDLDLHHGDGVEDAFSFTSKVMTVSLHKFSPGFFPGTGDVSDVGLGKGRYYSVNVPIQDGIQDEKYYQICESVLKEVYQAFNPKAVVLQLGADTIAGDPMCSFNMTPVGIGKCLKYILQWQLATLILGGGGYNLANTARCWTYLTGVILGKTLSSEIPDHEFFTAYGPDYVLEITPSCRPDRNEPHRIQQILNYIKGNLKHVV

On to `O=C(Cc1[nH]nc2ccccc12)N(Cc1ccc(-c2noc(C(F)(F)F)n2)cn1)c1cccc(F)c1` [Example 397, N-(3-fluorophenyl)-2-(2H-indazol-3-yl)-N-({5-[5-(trifluoromethyl)-1,2,4-oxadiazol-3-yl]pyridin-2-yl}methyl)acetamide], for which the IC50 (commonly the concentration at which inhibition is half-maximal) in assay [1] stood at 1.1 µM; in assay [2], 0.42 µM.

Consider `CC(C)c1ncncc1C(=O)N(Cc1ccc(-c2noc(C(F)(F)F)n2)cn1)c1cccc(F)c1` [Example 399, N-(3-fluorophenyl)-4-(1-methylethyl)-N-({5-[5-(trifluoromethyl)-1,2,4-oxadiazol-3-yl]pyridin-2-yl}methyl)pyrimidine-5-carboxamide], for which the results for the IC50 in assay [1] and in assay [2] were 3.1 µM and 0.93 µM, respectively.

Turning to `Cc1ccc(C(=O)N(Cc2ccc(-c3noc(C(F)(F)F)n3)cn2)c2cccc(F)c2)nn1` [Example 400, N-(3-fluorophenyl)-6-methyl-N-({5-[5-(trifluoromethyl)-1,2,4-oxadiazol-3-yl]pyridin-2-yl}methyl)pyridazine-3-carboxamide], the IC50 in assay [1] was 3.2 µM; in assay [2], 0.26 µM.

For the molecule `Cc1ncc(C(=O)N(Cc2ccc(-c3noc(C(F)(F)F)n3)cn2)c2cccc(F)c2)cn1` [Example 401, N-(3-fluorophenyl)-2-methyl-N-({5-[5-(trifluoromethyl)-1,2,4-oxadiazol-3-yl]pyridin-2-yl}methyl)pyrimidine-5-carboxamide], the results for the half-inhibitory concentration (IC50) in assay [1] and in assay [2] were 3.3 µM and 0.29 µM, respectively.

Consider `CS(=O)(=O)N1CC(C(=O)N(Cc2ccc(-c3noc(C(F)(F)F)n3)cn2)c2cccc(F)c2)C1` [Example 404, N-(3-fluorophenyl)-1-(methylsulfonyl)-N-({5-[5-(trifluoromethyl)-1,2,4-oxadiazol-3-yl]pyridin-2-yl}methyl)azetidine-3-carboxamide], for which the half-maximal inhibitory concentration (IC50) in assay [1] stood at 1.3 µM; in assay [2] it was 0.28 µM.

`O=C(C1CCN(C2CC2)CC1)N(Cc1ccc(-c2noc(C(F)(F)F)n2)cn1)c1cccc(F)c1` [Example 406, 1-cyclopropyl-N-(3-fluorophenyl)-N-({5-[5-(trifluoromethyl)-1,2,4-oxadiazol-3-yl]pyridin-2-yl}methyl)piperidine-4-carboxamide]: the IC50 in assay [1] worked out at 1.8 µM; in assay [2], 0.27 µM.

For the molecule `FC(F)(F)c1nc(-c2ccc(CNc3ccc4c[nH]nc4c3)cc2)no1` [Example 411, N-{4-[5-(trifluoromethyl)-1,2,4-oxadiazol-3-yl]benzyl}-2H-indazol-6-amine], the IC50 in assay [1] amounted to 2.2 µM; in assay [2], 1 µM.

Regarding `FC(F)(F)c1nc(-c2ccc(CNc3cccc4[nH]ncc34)cc2)no1` [Example 415, N-{4-[5-(trifluoromethyl)-1,2,4-oxadiazol-3-yl]benzyl}-1H-indazol-4-amine], the half-maximal inhibitory concentration (IC50) amounted to 2.5 µM in assay [1] and 1.6 µM in assay [2].

Turning to `FC(F)(F)c1nc(-c2ccc(CNc3cnccn3)cc2)no1` [Example 417, N-{4-[5-(trifluoromethyl)-1,2,4-oxadiazol-3-yl]benzyl}pyrazin-2-amine], the results for the IC50 in assay [1] and in assay [2] were 1.9 µM and 2.6 µM, respectively.

As to `OCc1ccnc(NCc2ccc(-c3noc(C(F)(F)F)n3)cc2)n1` [Example 418, [2-({4-[5-(trifluoromethyl)-1,2,4-oxadiazol-3-yl]benzyl}amino)pyrimidin-4-yl]methanol], the half-maximal inhibitory concentration (IC50) in assay [1] was 3.2 µM; in assay [2], 3.6 µM.

`FC(F)(F)c1nc(-c2ccc(CNc3cncnc3)cc2)no1` [Example 419, N-{4-[5-(trifluoromethyl)-1,2,4-oxadiazol-3-yl]benzyl}pyrimidin-5-amine]: the concentration for half-maximal inhibition (IC50) in assay [1] came out at 1.9 µM; in assay [2], 2.6 µM.

Consider `COCc1cc(=O)n(Cc2ccc(-c3noc(C(F)(F)F)n3)cn2)c2ccccc12` [Example 420, 4-(methoxymethyl)-1-({5-[5-(trifluoromethyl)-1,2,4-oxadiazol-3-yl]pyridin-2-yl}methyl)quinolin-2(1H)-one], for which the IC50 was 1 µM in assay [1] and 0.11 µM in assay [2].

As for `FC(F)(F)c1nc(-c2ccnc(OC[C@@H]3C[C@@H]3c3ncccn3)c2)no1` [Example 424, 2-{(1S,2R)-2-[({4-[5-(trifluoromethyl)-1,2,4-oxadiazol-3-yl]pyridin-2-yl}oxy)methyl]cyclopropyl}pyrimidine], the half-maximal inhibitory concentration (IC50) came out at 0.32 µM in assay [1] and 2.6 µM in assay [2].

With `COCCN1Cc2ccccc2N(Cc2ccc(-c3noc(C(F)(F)F)n3)cn2)C1=O` [Example 429, 3-(2-methoxyethyl)-1-({5-[5-(trifluoromethyl)-1,2,4-oxadiazol-3-yl]pyridin-2-yl}methyl)-3,4-dihydroquinazolin-2(1H)-one], the IC50 in assay [1] is 2.3 µM; in assay [2], 0.46 µM.

Take `FC(F)(F)c1nc(-c2ccc(CNc3[nH]nc4ccccc34)nc2)no1` [Example 430, N-({5-[5-(trifluoromethyl)-1,2,4-oxadiazol-3-yl]pyridin-2-yl}methyl)-2H-indazol-3-amine]: the IC50 was found to be 2 µM in assay [1] and 0.53 µM in assay [2].

Take `FC(F)(F)c1nc(-c2ccc(CNc3c[nH]nn3)nc2)no1` [Example 431, N-({5-[5-(trifluoromethyl)-1,2,4-oxadiazol-3-yl]pyridin-2-yl}methyl)-1H-1,2,3-triazol-4-amine]: the results for the IC50 in assay [1] and in assay [2] were 1.9 µM and 4.3 µM, respectively.

Consider `FC(F)(F)c1nc(-c2ccc(CNc3cnsc3)nc2)no1` [Example 433, N-({5-[5-(trifluoromethyl)-1,2,4-oxadiazol-3-yl]pyridin-2-yl}methyl)isothiazol-4-amine], for which the figures for the half-inhibitory concentration (IC50) in assay [1] and in assay [2] were 0.9 µM and 0.89 µM, respectively.

Take `FC(F)(F)c1nc(-c2ccc(CNc3cnoc3)nc2)no1` [Example 434, N-({5-[5-(trifluoromethyl)-1,2,4-oxadiazol-3-yl]pyridin-2-yl}methyl)isoxazol-4-amine]: the IC50 in assay [1] was determined as 1.2 µM; in assay [2], 1.1 µM.

Regarding `C[Si]1(C)CCC(NCc2ccc(-c3noc(C(F)(F)F)n3)cn2)CC1` [Example 436, 1,1-dimethyl-N-({5-[5-(trifluoromethyl)-1,2,4-oxadiazol-3-yl]pyridin-2-yl}methyl)silinan-4-amine], the 50% inhibitory concentration (IC50) in assay [1] is 4.2 µM; in assay [2], 1.2 µM.

As to `CN(C)C(=O)c1cccc(NCc2ccc(-c3noc(C(F)(F)F)n3)cn2)c1` [Example 438, N,N-dimethyl-3-[({5-[5-(trifluoromethyl)-1,2,4-oxadiazol-3-yl]pyridin-2-yl}methyl)amino]benzamide], the results for the IC50 in assay [1] and in assay [2] were 1 µM and 0.52 µM, respectively.

As for `O=C(NCc1ccccn1)c1cccc(NCc2ccc(-c3noc(C(F)(F)F)n3)cn2)c1` [Example 441, N-(pyridin-2-ylmethyl)-3-[({5-[5-(trifluoromethyl)-1,2,4-oxadiazol-3-yl]pyridin-2-yl}methyl)amino]benzamide], the IC50 worked out at 0.74 µM in assay [1] and 0.49 µM in assay [2].

For the molecule `NC(=O)c1ccnc(NCc2ccc(-c3noc(C(F)(F)F)n3)cn2)c1` [Example 442, 2-[({5-[5-(trifluoromethyl)-1,2,4-oxadiazol-3-yl]pyridin-2-yl}methyl)amino]pyridine-4-carboxamide], the IC50 in assay [1] came to 0.75 µM; in assay [2] it was 0.28 µM.

`CC(C)NC(=O)c1ccccc1NCc1ccc(-c2noc(C(F)(F)F)n2)cn1` [Example 443, N-(1-methylethyl)-2-[({5-[5-(trifluoromethyl)-1,2,4-oxadiazol-3-yl]pyridin-2-yl}methyl)amino]benzamide]: the IC50 in assay [1] was 1.4 µM; in assay [2], 1.2 µM.

`CNC(=O)c1ccccc1NCc1ccc(-c2noc(C(F)(F)F)n2)cn1` [Example 444, N-methyl-2-[({5-[5-(trifluoromethyl)-1,2,4-oxadiazol-3-yl]pyridin-2-yl}methyl)amino]benzamide]: the results for the half-maximal inhibitory concentration (IC50) in assay [1] and in assay [2] were 2.5 µM and 0.35 µM, respectively.

As to `NC(=O)c1ncccc1NCc1ccc(-c2noc(C(F)(F)F)n2)cn1` [Example 445, 3-[({5-[5-(trifluoromethyl)-1,2,4-oxadiazol-3-yl]pyridin-2-yl}methyl)amino]pyridine-2-carboxamide], the half-maximal inhibitory concentration (IC50) in assay [1] was determined as 2.2 µM; in assay [2], 0.85 µM.

Take `O=C(NC1CC1)c1ccccc1NCc1ccc(-c2noc(C(F)(F)F)n2)cn1` [Example 446, N-cyclopropyl-2-[({5-[5-(trifluoromethyl)-1,2,4-oxadiazol-3-yl]pyridin-2-yl}methyl)amino]benzamide]: the 50% inhibitory concentration (IC50) in assay [1] stood at 1.6 µM; in assay [2], 0.24 µM.

With `O=C(Nc1ccccc1)c1ccccc1NCc1ccc(-c2noc(C(F)(F)F)n2)cn1` [Example 447, N-phenyl-2-[({5-[5-(trifluoromethyl)-1,2,4-oxadiazol-3-yl]pyridin-2-yl}methyl)amino]benzamide], the half-inhibitory concentration (IC50) was 0.74 µM in assay [1] and 0.97 µM in assay [2].

For `NC(=O)c1cccc(NCc2ccc(-c3noc(C(F)(F)F)n3)cn2)c1` [Example 449, 3-[({5-[5-(trifluoromethyl)-1,2,4-oxadiazol-3-yl]pyridin-2-yl}methyl)amino]benzamide], the IC50 in assay [1] was 1.9 µM; in assay [2], 0.31 µM.

As for `O=C1COC[C@@H](CNCc2ccc(-c3noc(C(F)(F)F)n3)cn2)N1` [Example 450, (5R)-5-{[({5-[5-(trifluoromethyl)-1,2,4-oxadiazol-3-yl]pyridin-2-yl}methyl)amino]methyl}morpholin-3-one], the 50% inhibitory concentration (IC50) in assay [1] and in assay [2] was 2.8 µM throughout.

For the molecule `O=C1COC[C@H](CNCc2ccc(-c3noc(C(F)(F)F)n3)cn2)N1` [Example 451, (5S)-5-{[({5-[5-(trifluoromethyl)-1,2,4-oxadiazol-3-yl]pyridin-2-yl}methyl)amino]methyl}morpholin-3-one], the IC50 worked out at 2.4 µM in assay [1] and 2.5 µM in assay [2].

Take `FC(F)(F)c1nc(-c2ccc(COc3ncccn3)cc2)no1` [Example 457, 2-({4-[5-(trifluoromethyl)-1,2,4-oxadiazol-3-yl]benzyl}oxy)pyrimidine]: the IC50 turned out to be 0.73 µM in assay [1] and 2.6 µM in assay [2].

The values are drawn from US11066396B2 (priority 2016, dated 2021).
